According to patent publication US6686382B2, “Sulfonamides and derivatives thereof that modulate the activity of endothelin” (Encysive Pharmaceuticals Inc., priority 1999, dated 2004):
pIC50: −log10 of the molar value.

What was measured:
CYP3A4 = molecular target: T1, CYP3A4 (Homo sapiens, UniProt P08684); assay: Cytochrome P450 enzyme assay, CYP3A4 (Gentest Supersomes, fluorometric); type: in vitro ADME; details: human recombinant enzyme, mean IC50; read-out: CP450 3A4 IC50
T1 construct: purchased Gentest Corporation P202
Experimental: In vitro assays to determine the concentration of the compounds provided herein required for 50% inhibition of substrate metabolism (IC50) by different human cytochrome P450 enzymes (2C9, 2C19, 3A4) were conducted using human recombinant cytochrome P450 enzyme assays, developed by Gentest Corporation. These assays contain Gentest Supersomes™ (specific human cytochrome P450 enzyme, co-expressed with P450 reductase and cytochrome b5), a NADPH regenerating system, substrate and a concentration range of the compounds provided herein. The fluorescent product was the measured end point for these assays. IC50s were calculated using a four-parameter logistic equation with the bottom fixed at 0% inhibition and the top fixed at 100% inhibition. (Values are the mean IC50±SD when n is greater than 1.)
Assays were conducted in 96-well microtiter plates using fluorometric assays developed by Gentest Corporation. The 12 wells in each row were used for one inhibition curve. Wells 1 to 8 contained serial 1:3 dilutions of the test compound. Wells 9 to 12 contained no inhibitor and wells 11 and 12 were blanks for background fluorescence (stop solution was added before the enzyme). All concentration curves were performed in duplicate. Incubations were initiated by the addition of enzyme and substrate to the pre-warmed reaction mixture. After a specific incubation period, the reaction was stopped by the addition of stop solution. Metabolite production per well was determined by measuring fluorescence using a fluorescent plate reader. Detailed experimental procedures for each enzyme are listed below. See, generally, Methodology of a high throughput method for measuring cytochrome P450 inhibition (Gentest Corporation, Technical Bulletin); Crespi, C. L.; Miller, V. P.; and Penman, B. W. (1997) Anal. Biochem. 248:188-190; and Geungerich, F. P. (1997) Adv. Pharm. 43:7-35.
A 0.2 ml/well reaction mixture containing 4 pmol CYP3A4 (P202), 1.3 mM NADP^+, 3.3 mM glucose-6-phosphate, 3.3 mM magnesium chloride 0.4 U/ml glucose-6-phosphate dehydrogenase, 0.01% pluronic F68, and 50 μM resorufin benzyl ether in 200 mM potassium phosphate (pH 7.4), was incubated at 37° C. for 30 minutes. Ketoconazole, a standard inhibitor of 3A4, was serially diluted from the highest concentration of 5 μM and acted as a positive control. […] After incubation, the reaction was stopped by the addition of 75 μl stop solution (80% acetonitrile/20% 0.5 M Tris base) and fluorescence/well was measured within 1 hour using a Spectra Fluor (Tecan) fluorescent plate reader. […]
The “% inhibition” was calculated as follows: [formula]
Concentration versus % inhibition curves were constructed in Prism (GraphPad, Inc.). The data was analyzed using “Top & Bottom Fixed” routine. […]

[1] = tested on: ETA receptors and ETB receptors; assay: Endothelin binding inhibition, ETA (TE 671) and ETB (transfected COS7) receptors: selectivity; parameters: species or system human; details: antagonism of ETA receptors over ETB receptors
Text: Compounds that are potential endothelin antagonists are identified by testing their ability to compete with ^125I-labeled ET-1 for binding to human ETA receptors or ETB receptors present on isolated cell membranes. The effectiveness of the test compound as an antagonist or agonist of the biological tissue response of endothelin can also be assessed by measuring the effect on endothelin induced contraction of isolated rat thoracic aortic rings. The ability of the compounds to act as antagonists or agonists for ETB receptors can be assess by testing the ability of the compounds are to inhibit endothelin-1 induced prostacyclin release from cultured bovine aortic endothelial cells.
A. Endothelin Binding Inhibition—Binding Test #1: Inhibition of Binding to ETA Receptors
TE 671 cells (ATCC Accession No. HTB 139) express ETA receptors. These cells were grown to confluence in T-175 flasks. Cells from multiple flasks were collected by scraping, pooled and centrifugedfor 10 min at 190×g. The cells were resuspended in phosphate buffered saline (PBS) containing 10 mM EDTA using a Tenbroeck homogenizer. The suspension was centrifuged at 4° C. at 57,800×g for 15 min, the pellet was resuspended in 5 ml of buffer A (5 mM HEPES buffer, pH 7.4 containing aprotinin (100 KIU/ml)) and then frozen and thawed once. 5 ml of Buffer B (5 mM HEPES Buffer, pH 7.4 containing 10 mM MnCl2 and 0.001% deoxyribonuclease Type 1) was added, the suspension mixed by inversion and then incubated at 37° C. for 30 minutes. The mixture was centrifuged at 57,800×g as described above, the pellet washed twice with buffer A and then resuspended in buffer C (30 mM HEPES buffer, pH 7.4 containing aprotinin (100 KIU/ml) to give a final protein concentration of 2 mg/ml and stored at −70° C. until use.
The membrane suspension was diluted with binding buffer (30 mM HEPES buffer, pH 7.4 containing 150 mM NaCl, 5 mM MgCl2, 0.5% Bacitracin) to a concentration of 8 μg/50 μl. ^125I-endothelin-1 (3,000 cpm, […]) was added to 50 μL of either: (A) endothelin-1 (for non specific binding) to give a final concentration 80 nM); (B) binding buffer (for total binding); or (C) a test compound (final concentration 1 nM to 100 μM). The membrane suspension (50 μL), containing up to 8 μg of membrane protein, was added to each of (A), (B), or (C). Mixtures were shaken, and incubated at 4° C. for 16-18 hours, and then centrifuged at 4° C. for 25 min at 2,500×g. Alternatively, the incubation was conducted at 24° C. […] This, must be kept in mind when comparing IC50 concentrations among compounds provided herein.
The supernatant, containing unbound radioactivity, was decanted and the pellet counted on a Genesys multiwell gamma counter. The degree of inhibition of binding (D) was calculated according to the following equation: [formula]
B. Endothelin Binding Inhibition—Binding Test #2: Inhibition of Binding to ETB Receptors
COS7 cells were transfected with DNA encoding the ETB receptor, The resulting cells, which express the human ETB receptor, were grown to confluence in T-150 flasks. Membrane was prepared as described above. The binding assay was performed as described above using the membrane preparation diluted with binding buffer to a concentration of 1 μg/50 μl.
Briefly, the COS7 cells, described above, that had been transfected with DNA encoding the ETB receptor and express the human ETB receptor on their surfaces were grown to confluence in T-175 flasks. […]

T1 sequence (P08684 2-503 limits assumed): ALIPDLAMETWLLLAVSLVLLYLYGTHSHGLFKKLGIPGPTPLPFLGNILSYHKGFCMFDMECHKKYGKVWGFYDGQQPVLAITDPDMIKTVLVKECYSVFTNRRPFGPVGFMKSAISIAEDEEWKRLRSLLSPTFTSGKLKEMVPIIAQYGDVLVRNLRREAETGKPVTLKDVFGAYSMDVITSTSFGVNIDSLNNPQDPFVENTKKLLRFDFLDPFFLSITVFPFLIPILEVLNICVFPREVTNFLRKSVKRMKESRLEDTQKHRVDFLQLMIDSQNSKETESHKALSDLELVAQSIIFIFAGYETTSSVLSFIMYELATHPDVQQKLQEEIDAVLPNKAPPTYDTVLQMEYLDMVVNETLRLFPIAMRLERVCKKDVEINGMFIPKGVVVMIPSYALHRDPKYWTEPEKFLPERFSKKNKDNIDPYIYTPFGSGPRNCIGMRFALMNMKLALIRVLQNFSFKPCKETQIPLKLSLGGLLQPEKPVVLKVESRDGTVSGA

SMILES | pIC50 (CYP3A4) | Selectivity (IC50 for ETB/IC50 for ETA) [1]
CC(=O)c1cc(C)cc(C)c1NC(=O)c1sccc1S(=O)(=O)Nc1onc(C)c1C [Compound 7, N-(2-acetyl-4,6-dimethylphenyl)-3-{[(3,4 dimethyl-5-isoxazolyl)amino]sulfonyl}-2-thiophenecarboxamide] | 4.55 | 441,000
Cc1cc(C)c(NC(=O)c2sccc2S(=O)(=O)Nc2onc(C)c2Cl)c(Cl)c1 [Compound 34, N-(2-chloro-4,6-dimethylphenyl)-3-{[(4-chloro-3-methyl-5-isoxazolyl)amino]sulfonyl}2-thiophenecarboxamide] | 5.41 | 166,000
Cc1cc(C)c(NC(=O)c2sccc2S(=O)(=O)Nc2onc(C)c2Cl)c(S(C)(=O)=O)c1 [Compound 42, 3-{[(4-chloro-3-methyl-5-isoxazolyl)amino]sulfonyl)-N-[2,4-dimethyl-6-(methylsulfonyl)phenyl]-2-thiophenecarboxamide] | 4.86 | 456,000
Cc1cc2c(cc1CC(=O)c1sccc1S(=O)(=O)Nc1onc(C)c1Cl)OCO2 [N-(4-chloro-3-methyl-5-isoxazolyl)-2-{[3,4-(methylenedioxy)-6-methylphenyl)acetyl]-thiophene-3-sulfonamide, reference compound] | 7.05 | 20,950
